Source: the Kinase Knowledgebase extract (Sharma et al. 2016)

Biological target: EGFR (human) (UniProt P00533)
Details: kb

EGFR (human), sequence (P00533 whole entry, looked up): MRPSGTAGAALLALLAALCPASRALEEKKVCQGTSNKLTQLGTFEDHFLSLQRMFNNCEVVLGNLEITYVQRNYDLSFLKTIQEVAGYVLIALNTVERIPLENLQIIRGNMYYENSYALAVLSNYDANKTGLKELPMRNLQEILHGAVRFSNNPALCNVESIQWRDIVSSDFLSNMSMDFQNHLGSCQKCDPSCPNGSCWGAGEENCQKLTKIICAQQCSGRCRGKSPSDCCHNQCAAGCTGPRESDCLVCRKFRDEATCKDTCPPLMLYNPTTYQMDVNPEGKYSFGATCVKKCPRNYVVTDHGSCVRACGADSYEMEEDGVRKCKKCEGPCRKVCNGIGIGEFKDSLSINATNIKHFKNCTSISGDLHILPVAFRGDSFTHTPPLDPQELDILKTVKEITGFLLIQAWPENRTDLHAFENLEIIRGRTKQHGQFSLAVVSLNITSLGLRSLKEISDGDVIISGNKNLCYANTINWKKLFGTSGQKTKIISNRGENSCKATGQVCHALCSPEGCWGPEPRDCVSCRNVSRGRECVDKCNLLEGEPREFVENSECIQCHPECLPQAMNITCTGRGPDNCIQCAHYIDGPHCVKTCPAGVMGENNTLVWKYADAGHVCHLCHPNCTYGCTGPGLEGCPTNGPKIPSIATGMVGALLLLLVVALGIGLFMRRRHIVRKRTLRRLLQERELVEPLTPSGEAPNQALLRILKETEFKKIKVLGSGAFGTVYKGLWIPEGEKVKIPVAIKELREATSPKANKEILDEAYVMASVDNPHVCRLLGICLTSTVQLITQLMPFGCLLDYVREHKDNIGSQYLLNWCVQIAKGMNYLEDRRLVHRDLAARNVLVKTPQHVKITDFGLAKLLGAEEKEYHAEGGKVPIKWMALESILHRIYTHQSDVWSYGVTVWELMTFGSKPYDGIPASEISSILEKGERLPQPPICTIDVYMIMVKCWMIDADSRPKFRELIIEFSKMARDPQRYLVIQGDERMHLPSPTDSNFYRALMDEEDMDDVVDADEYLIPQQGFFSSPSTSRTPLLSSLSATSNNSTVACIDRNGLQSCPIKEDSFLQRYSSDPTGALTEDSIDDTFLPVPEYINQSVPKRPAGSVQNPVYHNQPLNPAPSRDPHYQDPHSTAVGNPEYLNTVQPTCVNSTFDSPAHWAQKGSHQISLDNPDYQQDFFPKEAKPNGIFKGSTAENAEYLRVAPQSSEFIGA

SMILES	IC50 [µM]
COc1cc2ncnc(NC3CC3c3ccccc3)c2cc1O (centres undefined)	> 25
COc1cc2ncnc(NC3CC3c3ccccc3)c2cc1OCCN1CCOCC1 (centres undefined)	0.57
COc1cc2ncnc(NC3CC3c3ccccc3)c2cc1OCCCN(C)C (centres undefined)	0.31
COc1cc2ncnc(N3CCc4ccccc43)c2cc1OC	4.1
COc1cc2ncnc(NNc3ccc(F)c(Cl)c3)c2cc1OC	0.78
COc1cc2ncnc(NC3CC3c3ccccc3)c2cc1OC(C)=O (centres undefined)	11.4
COc1cc2ncnc(NCc3cccc(C)c3)c2cc1OC	1.6
COc1cc2ncnc(NC3CCc4ccccc43)c2cc1OC (centres undefined)	1.73

Continued, values first:

IC50 [µM]	SMILES
0.14	COc1cc2ncnc(NC3CC3c3ccccc3)c2cc1OC (centres undefined)
> 25	COc1cc2ncnc(Nc3cnc4ccccc4n3)c2cc1OC
0.36	COc1cc2ncnc(Nc3cncc4ccccc34)c2cc1OC
1.8	COc1cc2ncnc(Nc3nccc4ccccc34)c2cc1OC
> 25	COc1cc2ncnc(Nc3nnc4ccccc4n3)c2cc1OC

Biological target: EGFR (human) (UniProt P00533)
Details: a431, dose or concentration not given here

SMILES	inhibition [%]
COc1cc2ncnc(NC3CC3c3ccccc3)c2cc1OCCCN(C)C (centres undefined)	36
